Test results from patent publication US10858407B2 (priority 2014, dated 2020).

Tested on: potassium ion channel current of the DRG neurons
Type: cell-based, SD rats
Conditions: 5 mM

Q: For `Nc1ccncc1` [4AP, 4-aminopyridine], which Current inhibition rate is on record?
A: Its Current inhibition rate is 0.338.

Q: And the “Current recorded after loading” value?
A: Its value is 0.9766 nA.
